# In patent publication EP4810038A1, “METHOD FOR TREATING ALK-POSITIVE OR ROS1-POSITIVE NON-SMALL CELL LUNG CANCER” (Shenzhen TargetRx Co., Ltd., priority 2023, dated 2025):
# Several values for one entry are separate records, joined by “and”; a condition that tells them apart may be missing. Identical values can stand only once. Entries after “also recorded” stand apart in the source; their conditions may differ.
# Tests used:
# [1] = tested on: ROS1-positive advanced NSCLC; experiment: Phase I clinical trial, indication expansion phase: efficacy in group B (ROS1-positive, prior crizotinib); type: in vivo, human
# Protocol: The anti-tumor efficacy is evaluated according to RECIST version 1.1. For patients initially evaluated as having a complete response (CR) or partial response (PR), efficacy should be confirmed at least 4 weeks later. In the patients with asymptomatic central nervous system (CNS) metastases, in addition to evaluating 5 extracranial target lesions, up to 5 intracranial target lesions will also be evaluated. The specific indicators are as follows:
# "ORR" includes CR and PR, and is defined as the proportion of patients who achieve complete response or partial response.
# "IC-ORR" includes CR or PR for confirmed intracranial lesions, and is defined as the proportion of the patients with complete response or partial response of intracranial lesions among the patients with intracranial lesions.
# "DCR" is defined as the proportion of the patients who achieve response (PR+CR) and stable disease (SD) after a treatment.
# "IC-DCR" is defined as the proportion of the patients who achieve intracranial response (PR+CR), intracranial stable disease (SD), and […] after a treatment among the patients with intracranial lesions.
# "DOR" is defined as the time from the first assessment of CR or PR to progressive disease or death, and is only applicable to the patients who achieve response.
# "IC-DOR" is defined as the time from the first assessment of intracranial CR or intracranial PR to progressive disease or death, and is only applicable to the patients whose intracranial lesions achieve response.
# "TTR" is defined as the time from patient enrollment (first dose of investigational drug) to tumor response (CR/PR), based on the patients with objective response.
# "IC-TTR" is defined as the time from patient enrollment (first dose of investigational drug) to intracranial tumor response (IC-CR/PR), based on the patients with intracranial objective response.
# "PFS" is defined as the time from the first administration of the investigational drug to progressive disease (PD) or death from any cause, whichever comes first.
# In the indication expansion phase, an appropriate administration regimen was determined based on the safety, tolerability, PK and efficacy data from the dose escalation phase and dose expansion phase, and the expansion was performed within the target population.
# The result of a pregnancy test conducted ≤7 days prior to the first administration of the investigational drug must be negative for the women of childbearing age.
# [2] = tested on: Ba/F3 (EML4-ALK G1202R) cell line; experiment: Anti-tumor effect in subcutaneous transplanted Ba/F3 (EML4-ALK G1202R) model; type: in vivo, NOD-SCID mice; conditions: for average tumor volume: 16th day after administration
# Description: Example 2: The anti-tumor effect in the subcutaneous transplanted animal model of Ba/F3 (EML4-ALK G1202R) cell line in female NOD-SCID mice.
# Laboratory animals: NOD-SCID mice, female, 7 to 8 weeks old (the age of mice at tumor cell inoculation), weighing 16.0 to 20.3 g, and 50 mice (with additional 30 surplus mice). […] Housing environment: SPF grade.
# Environmental conditions of the housing room of the laboratory animals: All the laboratory animals were housed in individually ventilated cages with constant temperature and constant humidity. The temperature of the housing room was 20 to 26 °C, the humidity was 40 to 70%, the ventilation was 10 to 20 times/hour, and the day/night light/dark cycle was 12h/12h. The animals were continuously provided with cobalt-60 irradiated complete pelleted mouse feed with unlimited free access. The animals drank tap water (used after being autoclaved), which was provided continuously from water bottles, allowing for free access. The cages for raising the mice were polysulfone mice cages, which were autoclaved before use, and measured 325 mm × 210 mm × 180 mm. The bedding was autoclaved corn cobs. Each cage contained 5 animals. […] The laboratory animals were marked with ear tags or ear labels.
# Cell culture: Ba/F3 (EML4-ALK G1202R) cells (cell number: ECL-00031) were cultured in RPMI 1640 culture medium containing 10% fetal bovine serum. The Ba/F3 (EML4-ALK G1202R) cells in the exponential growth phase were collected, resuspended in PBS to a suitable concentration, and then subcutaneously inoculated for tumor formation.
# Assay method: Female NOD/SCID mice were subcutaneously inoculated with 2×10^6 Ba/F3 (EML4-ALK G1202R) cells on the right side to establish a subcutaneous tumor transplantation model. […] The mice were administered orally via gavage once daily. The efficacy was evaluated based on the relative tumor growth inhibition rate (TGI), and the safety was evaluated based on the changes in the body weight and mortality of the animals.
# All the procedures, including drug administration, tumor measurement, weight measurement, etc., were performed in a biosafety cabinet or on a clean bench.
# The relative tumor growth rate (T/C%) was the percentage value of the relative tumor volume between a treatment group and the control group at a certain time point, or the percentage value of the tumor weight between a treatment group and the control group. […]
# [3] = intracranial measurable lesions, Group B (n=6)
compound,measurement,setting,value
"[2H]C([2H])([2H])n1nc2c(c1C#N)-c1cnc(N)c(c1)O[C@H](C)c1cc(F)ccc1C(=O)N(C)C2 [compound A, (10R)-7-amino-12-fluoro-2-(methyl-d3)-10,16-dimethyl-15-oxo-10,15,16,17-tetrahydro-2H-8,4-(metheno)pyrazolo[4,3-h][2,5,11]benzoxadiazacyclotetradecine-3-carbonitrile]",ORR,[1]; 24 ROS1-positive NSCLC patients previously treated with crizotinib,29.2%
same,intracranial ORR,"[1]; ROS1-positive, six patients with measurable CNS lesions at baseline",50.0%
same,median PFS,"[1]; group B, FAS, as of April 17, 2024",8.36 months
same,BOR CR,[1]; [3],0 n (%)
same,BOR NE,[1]; [3],0 n (%)
same,BOR PD,[1]; [3],1 (16.7) n (%)
same,BOR PR,[1]; [3],3 n (%) and 3 (50.0) n (%)
same,BOR SD,[1]; [3],2 (33.3) n (%)
same,Confirmed ORR (95% CI),[1]; [3],"3 (50.0) (11.8, 88.2) n (%)"
same,DCR (95% CI),[1]; [3],"5 (83.3) (35.9, 99.6) n (%)"
same,Median DOR (95% CI),[1]; [3],not reached
same,Median TTR (range),[1]; [3],"1.41 months and 1.41 (1.35, 1.41) months"
same,BOR CR,"[1]; systemic, Group B (n=24)",0 n (%)
same,BOR NE,"[1]; systemic, Group B (n=24)",0 n (%)
same,BOR PD,"[1]; systemic, Group B (n=24)",7 (29.2) n (%)
same,BOR PR,"[1]; systemic, Group B (n=24)",7 (29.2) n (%)
same,BOR SD,"[1]; systemic, Group B (n=24)",10 (41.7) n (%)
same,Confirmed ORR (95% CI),"[1]; systemic, Group B (n=24)","7 (29.2) (12.6,51.1) n (%)"
same,DCR (95% CI),"[1]; systemic, Group B (n=24)","17 (70.8) (48.9, 87.4) n (%)"
same,Median DOR (95% CI),"[1]; systemic, Group B (n=24)","not reached; also recorded: NR (4.370, -)"
same,Median TTR (range),"[1]; systemic, Group B (n=24)","1.41 months and 1.41 (1.31, 7.03) months"
same,average tumor volume,[2]; 1.5 mg/kg p.o. once daily,2139.18 mm^3
same,average tumor volume,[2]; 5 mg/kg p.o. once daily,576.11 mm^3
same,average tumor volume,[2]; 15 mg/kg p.o. once daily,0.25 mm^3
same,tumor-bearing mice with tumor volume reduced to 0,"[2]; 15 mg/kg, end of the assay",9/10
